Here are results for one compound from paper PMC2746281 (PLoS ONE, 2009).

One data set concerns the target Flt3 (Homo sapiens, UniProt P36888). Put plainly: Recombinant kinase ELISA assay, Flt3. Type of data set: biochemical. To be noted: recombinant human enzyme; ELISA-based assay, poly(Glu,Tyr 4:1) substrate. The method, then:
(§1) Full details for the generation of recombinant human KIT intracellular domain and other protein kinases (including Lyn, platelet derived growth factor receptor β, epidermal growth factor receptor, fibroblast growth factor receptor 1, Src, HCK, PYK, FES, Btk, Bmx, c-Ret, c-Fms, Syk, and c-Met) are provided in the Supplemental Methods (see Supporting Information; Methods S1). Experiments on ABL1, Akt1, protein kinase C-α, insulin-like growth factor receptor 1, and Pim1 were carried out by Proqinase (Germany). All other recombinant protein kinases were performed in-house using an enzyme-linked immunoassay; experimental details are provided in the Supplemental Methods (see Supporting Information; Methods S1).
On the technique in general: An ELISA detects its analyte on a solid surface through an enzyme-linked reagent.

In data set [1] the target is Fibroblast growth factor receptor 3 (Homo sapiens, UniProt P22607). In words: Recombinant kinase ELISA assay, FGFR3. The data set is classed as biochemical. As to conditions: recombinant human enzyme; ELISA-based assay, poly(Glu,Tyr 4:1) substrate. Here is the method: as §1
Sequence of Fibroblast growth factor receptor 3 (P22607 23-806): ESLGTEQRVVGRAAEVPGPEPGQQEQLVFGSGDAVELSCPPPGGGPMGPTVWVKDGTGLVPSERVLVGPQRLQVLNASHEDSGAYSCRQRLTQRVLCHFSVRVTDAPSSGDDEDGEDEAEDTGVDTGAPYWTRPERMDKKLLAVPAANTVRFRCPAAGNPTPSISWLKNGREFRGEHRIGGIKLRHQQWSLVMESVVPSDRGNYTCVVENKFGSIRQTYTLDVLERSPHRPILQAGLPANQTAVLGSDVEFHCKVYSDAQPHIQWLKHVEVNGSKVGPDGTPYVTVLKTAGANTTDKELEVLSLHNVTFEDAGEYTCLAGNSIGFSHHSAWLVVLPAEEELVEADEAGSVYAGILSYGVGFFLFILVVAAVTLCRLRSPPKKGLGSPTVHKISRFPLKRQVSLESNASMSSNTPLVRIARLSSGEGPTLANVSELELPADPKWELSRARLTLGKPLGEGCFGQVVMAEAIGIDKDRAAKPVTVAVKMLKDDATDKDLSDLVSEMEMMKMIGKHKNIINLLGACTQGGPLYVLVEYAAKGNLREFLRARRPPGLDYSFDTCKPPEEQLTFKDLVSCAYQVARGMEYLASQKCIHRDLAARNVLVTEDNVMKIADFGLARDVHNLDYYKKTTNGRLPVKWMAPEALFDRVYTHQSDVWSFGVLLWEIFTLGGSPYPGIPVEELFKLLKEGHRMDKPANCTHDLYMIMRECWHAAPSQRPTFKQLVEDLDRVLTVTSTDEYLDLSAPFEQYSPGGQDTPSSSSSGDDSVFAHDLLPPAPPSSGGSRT
A 96-well microtitre plate (Immulon 2HB; ThermoLifeScience, Finland) was coated overnight with 0.25 mg/ml poly(Glu,Tyr 4:1), rinsed twice with 250 µl of washing buffer (10 mM phosphate-buffered saline [pH 7.4] and 0.05% Tween 20) and dried for 2 hours at room temperature. […] Reactions were initiated upon introduction of the enzyme and terminated with the addition of one reaction volume (50 μl) of 100 mM EDTA per 5 M urea mix. […] The final reaction product was quantified by spectrophotometry at 450 nm.

The target of a further data set is T1, Btk (Homo sapiens, UniProt Q06187).
T1 construct: Btk (2–659; BC109079); 6xHN (N); made in house; host or cells: baculovirus, Sf9 insect cells
T1 sequence (Q06187 2-659): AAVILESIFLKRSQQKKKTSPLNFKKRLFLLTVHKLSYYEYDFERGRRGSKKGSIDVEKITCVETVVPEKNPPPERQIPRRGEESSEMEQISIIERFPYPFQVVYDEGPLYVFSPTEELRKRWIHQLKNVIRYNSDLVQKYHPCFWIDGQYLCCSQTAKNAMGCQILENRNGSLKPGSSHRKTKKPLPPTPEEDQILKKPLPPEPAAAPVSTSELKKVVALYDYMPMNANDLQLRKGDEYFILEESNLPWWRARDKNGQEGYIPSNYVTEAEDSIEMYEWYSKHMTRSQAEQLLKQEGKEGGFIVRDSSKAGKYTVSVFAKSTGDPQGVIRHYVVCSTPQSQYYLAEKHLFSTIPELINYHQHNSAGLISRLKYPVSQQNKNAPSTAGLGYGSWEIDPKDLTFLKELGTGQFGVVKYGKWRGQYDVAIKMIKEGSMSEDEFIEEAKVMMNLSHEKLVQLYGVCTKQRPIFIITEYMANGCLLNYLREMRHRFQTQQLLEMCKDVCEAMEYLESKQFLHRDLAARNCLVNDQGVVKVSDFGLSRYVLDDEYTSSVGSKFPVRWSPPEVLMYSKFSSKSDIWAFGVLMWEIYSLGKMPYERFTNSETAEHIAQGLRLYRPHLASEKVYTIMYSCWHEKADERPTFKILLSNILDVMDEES
In words: Recombinant kinase ELISA assay, Btk. To be noted: recombinant human enzyme; ELISA-based assay, poly(Glu,Tyr 4:1) substrate. The data set is classed as biochemical. The method, then:
as §1
The sequences encoding PDGF receptor β (residues 554–1106; GenBank accession no. BC032224), Lyn B (2–583; accession no. BC059394), fibroblast growth factor receptor 1 (572–959; accession no. BC018128), Src (2–536; accession no. BC011566), Btk (2–659; accession no. BC109079), Bmx (2–675; accession no. BC016652), c-Ret (713–1114; accession no. BC004257), c-Fms (538–972; BC047531), Syk (2–612; BC011399), Hck (2-526; accession no. BC014435), Fes (2-822; accession no. BC035357), PYK2 (2-1006; accession no. BC042599) and c-Met (949–1398; accession no. lifeseq3489592) were amplified by PCR from IMAGE cDNA clones purchased from Openbiosystems. […]

The next data set deals with T2, Tyk2 (Homo sapiens, UniProt P29597).
T2 construct: expressed in transfected cells; host or cells: Ba/F3
T2 sequence (P29597 whole entry, species assumed): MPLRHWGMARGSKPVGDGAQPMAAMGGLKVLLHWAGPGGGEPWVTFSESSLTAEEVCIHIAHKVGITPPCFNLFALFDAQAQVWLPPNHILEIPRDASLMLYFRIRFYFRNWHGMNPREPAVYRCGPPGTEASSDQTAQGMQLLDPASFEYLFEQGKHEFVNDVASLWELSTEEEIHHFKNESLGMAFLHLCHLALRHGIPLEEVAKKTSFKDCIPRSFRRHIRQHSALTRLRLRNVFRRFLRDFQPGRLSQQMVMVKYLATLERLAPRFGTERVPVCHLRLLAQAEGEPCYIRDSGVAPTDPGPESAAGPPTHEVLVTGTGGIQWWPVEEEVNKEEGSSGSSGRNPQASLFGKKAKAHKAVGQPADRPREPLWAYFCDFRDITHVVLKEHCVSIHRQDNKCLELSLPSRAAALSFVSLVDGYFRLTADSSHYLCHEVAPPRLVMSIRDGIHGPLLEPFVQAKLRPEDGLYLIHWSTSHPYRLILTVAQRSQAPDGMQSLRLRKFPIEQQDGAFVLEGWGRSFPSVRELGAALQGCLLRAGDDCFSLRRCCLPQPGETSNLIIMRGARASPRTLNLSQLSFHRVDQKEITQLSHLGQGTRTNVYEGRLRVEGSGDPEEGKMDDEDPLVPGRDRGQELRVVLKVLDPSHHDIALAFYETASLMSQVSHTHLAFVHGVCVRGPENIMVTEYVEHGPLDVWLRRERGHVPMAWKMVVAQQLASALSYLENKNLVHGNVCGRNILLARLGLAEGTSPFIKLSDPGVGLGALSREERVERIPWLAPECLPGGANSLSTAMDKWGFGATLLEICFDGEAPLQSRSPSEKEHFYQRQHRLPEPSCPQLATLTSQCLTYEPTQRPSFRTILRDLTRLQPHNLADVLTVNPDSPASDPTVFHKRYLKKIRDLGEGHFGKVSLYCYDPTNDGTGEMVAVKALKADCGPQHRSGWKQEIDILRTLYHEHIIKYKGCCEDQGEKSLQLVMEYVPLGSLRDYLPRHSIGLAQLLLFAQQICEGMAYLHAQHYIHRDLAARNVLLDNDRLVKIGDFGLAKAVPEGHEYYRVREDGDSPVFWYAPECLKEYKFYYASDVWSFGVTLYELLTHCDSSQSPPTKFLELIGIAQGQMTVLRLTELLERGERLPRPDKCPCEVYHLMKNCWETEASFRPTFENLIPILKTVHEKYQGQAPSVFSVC
In words: Ba/F3 cell proliferation (WST-1), Tyk2. To be noted: Ba/F3 cells expressing the enzyme, read-out: Cell-based assay IC50, Tyk2.

For data set [2], the system named is human cord-blood-derived mast cells (CBMC). Put plainly: FcεRI-mediated degranulation (β-hexosaminidase release) of IgE-anti IgE activated CBMC. The data set is classed as cell-based. To be noted: Mast cell, 0.5 h, 30 minutes of stimulation. Here is the method: (see Supporting Information; Methods S1). […] Assays of β-hexosaminidase release and TNF-α release were made by stimulating the CBMC with 1 µg/ml of goat anti-human IgE (Vector Laboratories) for 30 minutes or 4 hours, respectively. β-hexosaminidase was measured in the supernatant and in the sonicated cell pellets and its net release calculated. For TNF-α determination, the cell-free supernatants were collected by centrifugation and frozen at −80°C until determination of mediator content by the use of a specific ELISA kit according to manufacturer's instructions (Coulter, France). All assays were performed in duplicate and counts were repeated twice for each well.
Human CBMC were produced by long-term culture of CD34+ progenitors purified from normal cord-blood. […] At the beginning of the culture, rhIL-3 (1 ng/ml) (R&D Systems Europe, France) was also added to induce maximal expansion of haematopoietic progenitors. After 3 days the IL-3 was removed and 4 days later cells were transferred to a complete serum-free medium containing rmSCF at 100 ng/ml, which was renewed every 7 days thereafter. After 8 weeks in culture ≥99% of the cells were identified as being mast cells by May-Grünwald-Giemsa staining of cytocentrifuged samples.

In data set [3] the test system is murine bone marrow mast cell (BMMC). In words: Transwell migration of BMMC in response to rmSCF. Type of data set: cell-based. To be noted: Mus musculus, 4 hours, read-out: inhibition of migration of SCF-stimulated BMMCs relative to the control.
Protocol: Migration of murine BMMCs was evaluated using a transwell migration assay [35]. […] Filters were then placed in wells containing 600 µL of chemotaxis buffer supplemented with or without 10 ng/mL of rmSCF, for stimulated or unstimulated BMMCs, respectively. After 4 hours incubation at 37°C in 5% CO2, cells from the bottom chamber were resuspended and counted using a FACS Scan over 20 seconds. All assays were performed in triplicate and counts were repeated twice for each well. For tyrosine kinase inhibitor treatment, 1×10^7 mast cells were pretreated for 1.5 hours at 37°C in complete medium (OPTI MEM, 10% foetal calf serum (FCS), 1% antibiotics and 2-mercaptoethanol 5×10^−5 M, 10 ng/ml rIL3) either with 1 µM of inhibitor or an equivalent volume of DMSO.
In the next data set the test system is primary BMMCs. In words: IL-3-stimulated proliferation of primary BMMCs. The data set is classed as cell-based, mice. As to conditions: Mus musculus, BMMC, primary murine BMMCs. Here is the method:
(B) western blotting analysis of HMC-1α155 tyrosine phosphorylation. […] (D) Western blotting analysis of BMMC tyrosine phosphorylation. Cell proliferation was assessed by WST-1 colorimetric assay. […] MW = molecular weight.

For a further data set, the system named is mouse lymphoma. In words: Mouse lymphoma assay. As to conditions: our unpublished results. Type of data set: cell-based.

Sequence of Flt3 (P36888 27-993): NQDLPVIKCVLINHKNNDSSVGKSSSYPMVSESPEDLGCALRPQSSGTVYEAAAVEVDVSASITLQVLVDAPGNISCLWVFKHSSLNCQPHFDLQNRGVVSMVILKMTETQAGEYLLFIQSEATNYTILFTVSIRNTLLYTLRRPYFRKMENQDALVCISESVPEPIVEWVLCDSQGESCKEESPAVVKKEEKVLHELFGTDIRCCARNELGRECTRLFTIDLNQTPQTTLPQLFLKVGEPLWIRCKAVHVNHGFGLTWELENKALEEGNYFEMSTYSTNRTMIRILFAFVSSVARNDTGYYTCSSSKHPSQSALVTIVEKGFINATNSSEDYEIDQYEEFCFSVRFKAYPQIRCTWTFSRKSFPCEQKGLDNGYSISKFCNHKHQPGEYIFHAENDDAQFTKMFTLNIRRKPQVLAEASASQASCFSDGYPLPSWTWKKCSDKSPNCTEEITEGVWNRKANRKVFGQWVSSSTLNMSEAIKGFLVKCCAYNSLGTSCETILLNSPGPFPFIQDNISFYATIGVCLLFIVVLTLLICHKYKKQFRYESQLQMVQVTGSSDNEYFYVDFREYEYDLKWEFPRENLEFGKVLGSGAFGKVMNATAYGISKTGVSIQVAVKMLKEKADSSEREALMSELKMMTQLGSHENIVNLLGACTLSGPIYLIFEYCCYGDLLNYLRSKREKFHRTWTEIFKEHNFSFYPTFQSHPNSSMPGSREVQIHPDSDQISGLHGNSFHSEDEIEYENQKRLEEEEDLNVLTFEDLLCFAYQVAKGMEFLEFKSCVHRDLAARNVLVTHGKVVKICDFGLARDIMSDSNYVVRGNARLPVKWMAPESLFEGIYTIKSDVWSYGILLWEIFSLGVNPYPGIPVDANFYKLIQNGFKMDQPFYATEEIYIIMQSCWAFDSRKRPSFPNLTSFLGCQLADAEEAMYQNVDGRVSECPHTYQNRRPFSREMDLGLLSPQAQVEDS

Turning to `CS(=O)(=O)O.CS(=O)(=O)O.Cc1ccc(NC(=O)c2ccc(CN3CCN(C)CC3)cc2)cc1Nc1nc(-c2cccnc2)cs1` [masitinib, 4-(4-methylpiperazin-1-ylmethyl)-N-[4-methyl-3-(4-pyridin-3ylthiazol-2-ylamino)phenyl]benzamide-mesylate methane sulfonic acid salt], the IC50 on Flt3 was more than 10 µM; in data set [1], more than 10 µM; on Btk, more than 10 µM; at Tyk2 it was 9 ± 0.8 µM; with primary BMMCs it was more than 10 µM. The compound further came in with an inhibition at 0.1 µM in data set [2] (0.1 µM) of 7%. Further, the inhibition at 1 µM was 18% in data set [2] (1.0 µM) and approximately 79.6% in data set [3]. Further, the inhibition at 10 µM in data set [2] (10 µM) is 35%. In addition, the “mutagenicity in a mouse lymphoma assay” value in the data set on mouse lymphoma is on record as “not mutagenic”.

The IC50 is the concentration that gives 50% inhibition.
